These results are taken from ChEMBL document CHEMBL1145374, “Discovery of para-alkylthiophenoxyacetic acids as a novel series of potent and selective PPARdelta agonists” (Bioorg Med Chem Lett, 2007).

Data set [1] concerns the target T1, Peroxisome proliferator-activated receptor alpha (Homo sapiens, UniProt Q07869).
T1 sequence (Q07869 whole entry): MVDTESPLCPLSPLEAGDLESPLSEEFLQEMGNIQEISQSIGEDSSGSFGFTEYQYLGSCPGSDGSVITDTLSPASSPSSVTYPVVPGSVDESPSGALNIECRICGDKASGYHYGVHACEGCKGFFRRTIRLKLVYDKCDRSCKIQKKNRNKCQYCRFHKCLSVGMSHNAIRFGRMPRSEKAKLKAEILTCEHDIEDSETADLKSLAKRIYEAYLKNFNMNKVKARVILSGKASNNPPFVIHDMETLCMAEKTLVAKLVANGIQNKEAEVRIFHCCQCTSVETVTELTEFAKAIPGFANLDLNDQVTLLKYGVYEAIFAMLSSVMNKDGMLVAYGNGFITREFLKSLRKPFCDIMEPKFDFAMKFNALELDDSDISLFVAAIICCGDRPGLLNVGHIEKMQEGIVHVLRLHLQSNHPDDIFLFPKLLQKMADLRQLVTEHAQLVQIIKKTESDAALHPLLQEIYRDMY
The data set can be described thus: Activity at human PPARalpha receptor by cell based transactivation assay.

Data set [2] addresses T2, Peroxisome proliferator-activated receptor gamma (Homo sapiens, UniProt P37231).
T2 sequence (P37231 whole entry): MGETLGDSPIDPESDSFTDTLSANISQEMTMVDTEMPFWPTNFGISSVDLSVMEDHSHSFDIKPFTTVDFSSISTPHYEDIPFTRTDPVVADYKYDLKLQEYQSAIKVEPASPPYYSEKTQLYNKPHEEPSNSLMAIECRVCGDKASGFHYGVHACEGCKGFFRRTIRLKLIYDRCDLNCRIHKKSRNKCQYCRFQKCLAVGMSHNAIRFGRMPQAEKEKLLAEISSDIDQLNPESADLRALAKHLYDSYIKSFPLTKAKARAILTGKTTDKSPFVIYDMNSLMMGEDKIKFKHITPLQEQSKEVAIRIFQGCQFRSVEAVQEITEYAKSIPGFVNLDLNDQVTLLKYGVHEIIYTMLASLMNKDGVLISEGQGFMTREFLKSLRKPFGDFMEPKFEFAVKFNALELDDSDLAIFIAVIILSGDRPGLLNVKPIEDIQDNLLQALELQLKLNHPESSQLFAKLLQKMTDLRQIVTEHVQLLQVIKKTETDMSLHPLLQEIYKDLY
As to the kind of experiment: Activity at human PPARgamma receptor by cell based transactivation assay.

For data set [3], the target named is T3, Peroxisome proliferator-activated receptor delta (Homo sapiens, UniProt Q03181).
T3 sequence (Q03181 whole entry): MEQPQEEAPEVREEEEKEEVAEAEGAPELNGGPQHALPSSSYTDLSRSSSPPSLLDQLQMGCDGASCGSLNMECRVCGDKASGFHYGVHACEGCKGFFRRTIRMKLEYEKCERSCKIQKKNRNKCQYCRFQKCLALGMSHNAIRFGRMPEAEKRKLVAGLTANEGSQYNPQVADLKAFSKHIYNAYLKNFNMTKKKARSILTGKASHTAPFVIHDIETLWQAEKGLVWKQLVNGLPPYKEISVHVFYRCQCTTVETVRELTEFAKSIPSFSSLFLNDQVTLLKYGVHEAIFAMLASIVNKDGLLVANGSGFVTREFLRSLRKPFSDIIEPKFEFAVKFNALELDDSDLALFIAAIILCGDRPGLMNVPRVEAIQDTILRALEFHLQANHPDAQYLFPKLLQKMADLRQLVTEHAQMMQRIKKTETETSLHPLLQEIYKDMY
As to the kind of experiment: Agonist activity at human PPARdelta receptor by cell based transactivation assay. In kind it is functional.

The nature of data set [4]: Cmax in rat. The format is ADME, organism-based. The settings on record: in vivo.
Data set [5] in a line: AUC in rat. In kind it is ADME, organism-based. The settings on record: plasma.
A short description of data set [6]: Half life in rat. In kind it is ADME, organism-based. The settings on record: in vivo.
Data set [7] in a line: Oral bioavailability in rat. In kind it is ADME, organism-based. The settings on record: in vivo.
Data set [8] is described as follows: Tmax in rat. The format is ADME, organism-based. The settings on record: in vivo.

The EC50 is the concentration at which the effect is half-maximal. High values mean lower potency in that assay, low ones higher potency in that assay. Regarding `CCO[C@H](COc1ccc(C(F)(F)F)cc1)C[S+]([O-])c1ccc(OCC(=O)O)c(C)c1` (stereo not given in full), the EC50 is greater than 1000 nM in data set [1], greater than 1000 nM in data set [2] and greater than 3000 nM in data set [3].

Turning to `CCCOC(COc1ccc(C(F)(F)F)cc1)CSc1ccc(OCC(=O)O)c(C)c1` (stereo not given), the concentration for a half-maximal effect (EC50) in data set [1] and in data set [2] was greater than 1000 nM in each case.

With `COC(COc1ccc(C(F)(F)F)cc1)CSc1ccc(OCC(=O)O)c(C)c1` (stereo not given), the figures for the EC50 in data set [1], in data set [2] and in data set [3] were greater than 1000 nM, greater than 1000 nM and 18.8 nM, respectively.

With `Cc1cc(SCC(O)COc2ccc(C(F)(F)F)cc2)ccc1OCC(=O)O` (stereo not given), the EC50 in data set [1] and in data set [2] was greater than 1000 nM throughout.

`CCOC(COc1ccc(C(F)(F)F)cc1)CSc1ccc(OCC(=O)O)c(C)c1` (stereo not given): the concentration for a half-maximal effect (EC50) in data set [1] is greater than 1000 nM; in data set [2], greater than 1000 nM; in data set [3], 3.4 nM.

`CCOCC(COc1ccc(C(F)(F)F)cc1)CSc1ccc(OCC(=O)O)c(C)c1` (stereo not given): the EC50 in data set [1] and in data set [2] was greater than 1000 nM in each case.

Regarding `Cc1cc(SCC(COc2ccc(C(F)(F)F)cc2)COc2ccc(C(F)(F)F)cc2)ccc1OCC(=O)O`, the EC50 in data set [1] and in data set [2] was greater than 1000 nM in each case.

`CCCCOC(COc1ccc(C(F)(F)F)cc1)CSc1ccc(OCC(=O)O)c(C)c1` (stereo not given): the values for the concentration for a half-maximal effect (EC50) in data set [1], in data set [2] and in data set [3] were greater than 1000 nM, greater than 1000 nM and 7 nM, respectively.

Regarding `CCOC(COc1ccc(C(F)(F)F)cc1)COc1ccc(OCC(=O)O)c(C)c1` (stereo not given), the EC50 in data set [1] and in data set [2] was greater than 1000 nM in each case.

For `CCC(COc1ccc(C(F)(F)F)cc1)CSc1ccc(OCC(=O)O)c(C)c1` (stereo not given), the half-maximal effective concentration (EC50) in data set [1] was greater than 1000 nM; in data set [2] it was greater than 1000 nM; in data set [3], 0.06 nM.

The Cmax is the highest concentration seen after dosing. Usually AUC stands for the area under the concentration-time curve, a measure of exposure. High values mean high exposure, low ones low exposure. A word on the half-life: it is the time in which the quantity being followed falls by half. A word on the bioavailability: it is the share of a dose that reaches the circulation, judged against a reference dose that is usually intravenous. A lower bioavailability goes with poor availability. Broadly, the Tmax is the time at which the peak concentration occurs. In the case of `CC[C@H](COc1ccc(C(F)(F)F)cc1)CSc1ccc(OCC(=O)O)c(C)c1`, the Cmax in data set [4] worked out at 8.87 µg/mL. Moreover, the EC50 in data set [1] was greater than 1000 nM; in data set [2], greater than 1000 nM; in data set [3], 0.03 nM. The compound also yielded an area under the curve (AUC) in data set [5] of 13.6 µg·h/mL. In addition, the half-life in data set [6] is 8.2 h. Further, the bioavailability in data set [7] was 84%. Moreover, the time to peak (Tmax) in data set [8] was determined as 0.5 h.

In the case of `Cc1cc(SCC(C)COc2ccc(C(F)(F)F)cc2)ccc1OCC(=O)O` (stereo not given), the EC50 in data set [1] is greater than 1000 nM; in data set [2] it was greater than 1000 nM; in data set [3] it was 7.4 nM.

On to `COCOC(COc1ccc(C(F)(F)F)cc1)CSc1ccc(OCC(=O)O)c(C)c1` (stereo not given), for which the EC50 in data set [1] and in data set [2] was greater than 1000 nM in each case.

With `CCCC(=O)c1ccc(OC(COc2ccc(C(F)(F)F)cc2)CSc2ccc(OCC(=O)O)c(C)c2)cc1` (stereo not given), the concentration giving a half-maximal response (EC50) in data set [1] and in data set [2] was greater than 1000 nM in each case.

In the case of `COc1ccc(OC(COc2ccc(C(F)(F)F)cc2)CSc2ccc(OCC(=O)O)c(C)c2)cc1` (stereo not given), the EC50 in data set [1] and in data set [2] was greater than 1000 nM in each case.

Consider `CCOC(CCc1ccc(C(F)(F)F)cc1)CSc1ccc(OCC(=O)O)c(C)c1` (stereo not given), for which the 50% effective concentration (EC50) in data set [1] and in data set [2] was greater than 1000 nM in each case.

`COCO[C@@H](COc1ccc(C(F)(F)F)cc1)CSc1ccc(OCC(=O)O)c(C)c1`: the EC50 in data set [1] was greater than 1000 nM; in data set [2] it was greater than 1000 nM; in data set [3], 70 nM.

Regarding `CCO[C@@H](COc1ccc(C(F)(F)F)cc1)CSc1ccc(OCC(=O)O)c(C)c1`, the concentration giving a half-maximal response (EC50) is greater than 1000 nM in data set [1], greater than 1000 nM in data set [2] and 25 nM in data set [3].

As to `Cc1cc(SCC(COc2ccc(C(F)(F)F)cc2)OCc2ccccc2)ccc1OCC(=O)O` (stereo not given), the EC50 in data set [1] and in data set [2] was greater than 1000 nM each time.

For `CSCOC(CCc1ccc(C(F)(F)F)cc1)CSc1ccc(OCC(=O)O)c(C)c1` (stereo not given), the EC50 in data set [1] is greater than 1000 nM; in data set [2], greater than 1000 nM; in data set [3], 15.2 nM.

In the case of `COCO[C@H](COc1ccc(C(F)(F)F)cc1)CSc1ccc(OCC(=O)O)c(C)c1`, the EC50 in data set [1] and in data set [2] was greater than 1000 nM each time.

As to `C=CCOC(COc1ccc(C(F)(F)F)cc1)CSc1ccc(OCC(=O)O)c(C)c1` (stereo not given), the EC50 in data set [1] was greater than 1000 nM; in data set [2], greater than 1000 nM; in data set [3], 3.9 nM.

On to `Cc1cc(SCC(COc2ccc(C(F)(F)F)cc2)OCC(=O)O)ccc1OCC(=O)O` (stereo not given), for which the 50% effective concentration (EC50) in data set [1] and in data set [2] was greater than 1000 nM each time.

Take `CCO[C@H](COc1ccc(C(F)(F)F)cc1)CSc1ccc(OCC(=O)O)c(C)c1`: the 50% effective concentration (EC50) in data set [1] is greater than 1000 nM; in data set [2], greater than 1000 nM; in data set [3], 1.9 nM.
